Source: ChEMBL document CHEMBL1143840, “In vivo efficacy of anidulafungin and caspofungin against Candida glabrata and association with in vitro potency in the presence of sera” (Antimicrob Agents Chemother, 2007)
≈ marks a conversion by molar mass, not a printed value. Where “and” joins values, the source holds several entries; their conditions need not be identical. Equal entries are not always repeated. Calls of active or inactive are those of the source. The rule behind the calls is not given here. *1 amine or outer side, *2 acyl side, *3 side chain or, on linkers, in order; H or OH if unused. Where a SMILES comes first, the peptide text is derived from it. Bridges are numbered along the chain shown (N, C = ends). [ ]: non-standard residue; d: D form. The star is where a group is joined. pTerphenylCO(4''-OnC5H11) = CCCCCOc1ccc(-c2ccc(-c3ccc(C(=O)*)cc3)cc2)cc1; Orn(4R-OH,5R-OH) = O=C([C@H](C[C@@H](O)[C@@H](O)N[*:3])N[*:1])[*:2]; hTyr(3S-OH,4S-OH) = N[C@H](C(=O)O)[C@H](O)[C@@H](O)c1ccc(O)cc1; Pro(3S-OH,4S-Me) = C[C@H]1CN[C@H](C(=O)O)[C@H]1O; Hyp = O=C(O)[C@@H]1C[C@@H](O)CN1

Columns and labels:
[1] = tested on: Nakaseomyces glabratus; test: Antifungal activity against Candida glabrata 05-62 isolate in presence of 5% human serum after 24 hrs by broth microdilution method; assay type: functional, organism-based
[2] = tested on: Nakaseomyces glabratus; test: Antifungal activity against Candida glabrata 05-761 isolate after 22 hrs by XTT assay; assay type: functional, organism-based
[3] = tested on: Nakaseomyces glabratus; test: Antifungal activity against Candida glabrata 05-761 isolate assessed as decrease in fungal turbidity in presence of 5% human serum by microdilution method; assay type: functional
[4] = tested on: Nakaseomyces glabratus; test: Antifungal activity against Candida glabrata 05-761 isolate infected ICR mouse kidney assessed as reduction of tissue fungal burden at 1 mg/kg, ip; assay type: functional, organism-based; set-up: dose 1 mg/kg
[5] = tested on: Nakaseomyces glabratus; test: Antifungal activity against Candida glabrata 05-761 isolate assessed as decrease in fungal turbidity in presence of 50% human serum by microdilution method; assay type: functional
[6] = tested on: Nakaseomyces glabratus; test: Antifungal activity against Candida glabrata 05-62 isolate assessed as decrease in fungal turbidity in presence of 5% human serum by microdilution method; assay type: functional
[7] = tested on: Nakaseomyces glabratus; test: Antifungal activity against Candida glabrata 05-761 isolate assessed as decrease in fungal turbidity by microdilution method; assay type: functional
[8] = tested on: Nakaseomyces glabratus; test: Antifungal activity against Candida glabrata 05-761 isolate infected ICR mouse kidney assessed as reduction of tissue fungal burden at 5 mg/kg, ip; assay type: functional, organism-based; set-up: dose 5 mg/kg
[9] = tested on: Nakaseomyces glabratus; test: Antifungal activity against Candida glabrata 05-761 isolate in presence of 5% human serum after 24 hrs by broth microdilution method; assay type: functional, organism-based
[10] = tested on: Nakaseomyces glabratus; test: Antifungal activity against Candida glabrata 05-761 isolate assessed as decrease in fungal turbidity in presence of 5% mouse serum by microdilution method; assay type: functional
[11] = tested on: Nakaseomyces glabratus; test: Antifungal activity against Candida glabrata 05-761 isolate in presence of 50% mouse serum after 24 hrs by broth microdilution method; assay type: functional
[12] = tested on: Nakaseomyces glabratus; test: Antifungal activity against Candida glabrata 05-62 isolate in presence of 50% human serum after 24 hrs by broth microdilution method; assay type: functional
[13] = tested on: Nakaseomyces glabratus; test: Antifungal activity against Candida glabrata 05-761 isolate infected ICR mouse kidney assessed as reduction of tissue fungal burden at 0.5 mg/kg, ip; assay type: functional, organism-based; set-up: dose 0.5 mg/kg
[14] = tested on: Nakaseomyces glabratus; test: Antifungal activity against Candida glabrata 05-62 isolate after 2 hrs in presence of 5% mouse serum by XTT reduction assay; assay type: functional
[15] = tested on: Nakaseomyces glabratus; test: Antifungal activity against Candida glabrata 05-62 isolate in presence of 5% human serum after 22 hrs by XTT assay; assay type: functional, organism-based
[16] = tested on: Nakaseomyces glabratus; test: Antifungal activity against Candida glabrata 05-761 isolate assessed as decrease in fungal turbidity in presence of 50% mouse serum by microdilution method; assay type: functional
[17] = tested on: Nakaseomyces glabratus; test: Antifungal activity against Candida glabrata 05-761 isolate after 24 hrs by broth microdilution method; assay type: functional
[18] = tested on: Nakaseomyces glabratus; test: Antifungal activity against Candida glabrata 05-62 isolate after 24 hrs by broth microdilution method; assay type: functional
[19] = tested on: Nakaseomyces glabratus; test: Antifungal activity against Candida glabrata 05-761 isolate in presence of 5% mouse serum after 24 hrs by broth microdilution method; assay type: functional
[20] = tested on: Nakaseomyces glabratus; test: Antifungal activity against Candida glabrata 05-62 isolate in presence of 50% mouse serum after 24 hrs by broth microdilution method; assay type: functional
[21] = tested on: Nakaseomyces glabratus; test: Antifungal activity against Candida glabrata 05-62 isolate assessed as decrease in fungal turbidity in presence of 50% human serum by microdilution method; assay type: functional
[22] = tested on: Nakaseomyces glabratus; test: Antifungal activity against Candida glabrata 05-62 isolate after 22 hrs by XTT assay; assay type: functional, organism-based
[23] = tested on: Nakaseomyces glabratus; test: Antifungal activity against Candida glabrata 05-761 isolate in presence of 50% human serum after 24 hrs by broth microdilution method; assay type: functional
[24] = tested on: Nakaseomyces glabratus; test: Antifungal activity against Candida glabrata 05-62 isolate in presence of 5% mouse serum after 24 hrs by broth microdilution method; assay type: functional
[25] = tested on: Nakaseomyces glabratus; test: Antifungal activity against Candida glabrata 05-62 isolate after 2 hrs in presence of 50% mouse serum by XTT reduction assay; assay type: functional
[26] = Nakaseomyces glabratus, 24 h, read-out: MIC

Molecule CCCCCOc1ccc(-c2ccc(-c3ccc(C(=O)N[C@H]4C[C@@H](O)[C@@H](O)NC(=O)[C@@H]5[C@@H](O)[C@@H](C)CN5C(=O)[C@H]([C@@H](C)O)NC(=O)[C@H]([C@H](O)[C@@H](O)c5ccc(O)cc5)NC(=O)[C@@H]5C[C@@H](O)CN5C(=O)[C@H]([C@@H](C)O)NC4=O)cc3)cc2)cc1 [ANIDULAFUNGIN] ({pTerphenylCO(4''-OnC5H11)}-[Orn(4R-OH,5R-OH)]T[Hyp][hTyr(3S-OH,4S-OH)]T[Pro(3S-OH,4S-Me)]; lactam 1-C) has an IC50 [1] of 1.7 µg/mL, an IC90 [1] of 3.1 µg/mL and an MIC [1] of 2 µg/mL. For the same molecule, the IC50 [2] was 0.05 µg/mL (≈ 0.0438 µM), the IC90 [2] was 0.16 µg/mL (≈ 0.14 µM) and the MIC [3] was 0.5 µg/mL. The Activity [4] was “Active”, the MIC [5] was 1 µg/mL and the MIC [6] was 2 µg/mL. The MIC [7] was 0.06 µg/mL (≈ 0.0526 µM), the Activity [8] was “inactive” and the IC50 [9] was 0.31 µg/mL. It also gave an IC90 [9] of 0.39 µg/mL, an MIC [9] of 0.5 µg/mL and an MIC [10] of 0.5 µg/mL. For the same molecule, the MIC [11] was 1 µg/mL, the MIC [12] was 16 µg/mL and the Activity [13] was “Active”. For the same molecule, the MIC [14] was 4 µg/mL, the IC50 [15] was 1.7 µg/mL and the IC90 [15] was 3.1 µg/mL. The MIC [16] was 1 µg/mL, the MIC [17] was 0.125 µg/mL and 0.06 µg/mL and the MIC [18] was 0.25 µg/mL (≈ 0.219 µM). The MIC [18, 26] was 0.5 µg/mL (≈ 0.438 µM), the MIC [19] was 0.5 µg/mL and the MIC [20] was 8 µg/mL. The MIC [21] was 8 µg/mL, the IC50 [22] was 0.31 µg/mL (≈ 0.272 µM) and the IC90 [22] was 0.41 µg/mL (≈ 0.36 µM). For the same molecule, the MIC [23] was 2 µg/mL, the MIC [24] was 4 µg/mL and the MIC [25] was 8 µg/mL.
Work on CC[C@H](C)C[C@H](C)CCCCCCCCC(=O)N[C@H]1C[C@@H](O)[C@@H](NCCN)NC(=O)[C@@H]2[C@@H](O)CCN2C(=O)[C@H]([C@H](O)CCN)NC(=O)[C@H]([C@H](O)[C@@H](O)c2ccc(O)cc2)NC(=O)[C@@H]2C[C@@H](O)CN2C(=O)[C@H]([C@@H](C)O)NC1=O [CASPOFUNGIN] yielded an IC50 [1] of 1.4 µg/mL, an IC90 [1] of over 32 µg/mL and an MIC [1] of over 32 µg/mL. The IC50 [2] was 1.1 µg/mL (≈ 1.01 µM), the IC90 [2] was 1.6 µg/mL (≈ 1.46 µM) and the MIC [3] was 0.25 µg/mL. The Activity [4] was “Active”, the MIC [5] was 1 µg/mL and the MIC [6] was 2 µg/mL. For the same molecule, the MIC [7] was 1 µg/mL (≈ 0.915 µM), the Activity [8] was “inactive” and the IC50 [9] was 0.29 µg/mL. The IC90 [9] was 0.33 µg/mL, the MIC [9] was 0.5 µg/mL and the MIC [10] was 1 µg/mL. The MIC [11] was 2 µg/mL, the MIC [12] was over 32 µg/mL and the Activity [13] was “Active”. It also gave an MIC [14] of 4 µg/mL, an IC50 [15] of 1.4 µg/mL and an IC90 [15] of over 32 µg/mL. For the same molecule, the MIC [16] was 2 µg/mL, the MIC [17, 26] was 2 µg/mL (≈ 1.83 µM) and the MIC [18, 26] was over 32 µg/mL. The MIC [19] was 1 µg/mL, the MIC [20] was over 32 µg/mL and the MIC [21] was 4 µg/mL. For the same molecule, the IC50 [22] was 1.2 µg/mL (≈ 1.1 µM), the IC90 [22] was over 32 µg/mL and the MIC [23] was 1 µg/mL. It also gave an MIC [24] of over 32 µg/mL and an MIC [25] of 8 µg/mL.
